melting point [°C] | SMILES
155 to 160 | CC1(O)CC(=O)OC(CCc2ccc(OCc3ccccc3)cc2)C1Br (stereo not given)
178 to 179 | O=C(Nc1cccnc1)N1CCN(c2cc(-c3ccccc3F)ncn2)CC1
66.5 to 67.5 | CCCCCCCCCCCCCCCCNc1ccc(C=O)cc1
248 to 249 | O=C(NC(Cc1ccc(OCc2ccccc2)cc1)C(=O)O)c1cn2ccc(-c3ccc(Cl)cc3)cc2n1 (stereo not given)
242 to 246 | O=C1NC(N2CCN(c3cnccn3)CC2)c2ccccc21 (stereo not given)
150 | COc1ccc(C=CC(=O)N(C)O)cc1OC
154 to 156 | COc1c(Cl)nc(C(=O)O)c(Cl)c1N
165 to 166 | N#CCCNC(=O)c1cccc(-c2ccc3c(c2)C(Nc2ccc(Cl)cc2Cl)CO3)c1 (stereo not given)
145 to 147 | CC(C)OC(=O)N1CCC(c2nc3cc(-c4ccc(C(=O)NCCO)c(F)c4)ccc3o2)CC1
214 to 216 | CCC(C)Nc1ccc2n[nH]c(=O)n2n1 (stereo not given)
114 | Cc1cc(-c2cc(C(F)(F)F)n3nccc3n2)ccc1Cl
297 to 299 | NNC(=O)c1cccc(C(=O)N(NC(=O)c2ccccc2)C(=O)c2ccccc2)c1
162 | Cc1cc(Oc2ccc(-c3ccn(CC4CC4)c(=O)c3C(F)(F)F)cc2F)cc(C)n1
156 to 158 | COc1ccc(CNC(=O)C(C)=NNc2ccc(Cl)cc2)cc1
137 to 138 | O=C(O)[C@H](COCc1ccccc1)NC1(c2ccccc2)c2ccccc2-c2ccccc21
87 to 90 | Cc1ccc(Oc2ccncc2[N+](=O)[O-])cn1
184 to 185 | COc1cc(-c2cc(=O)c3ccc(OCCBr)cc3o2)cc(OC)c1OC
245 to 247 | CCCCNC1NC(=O)N(c2cccc(C(F)(F)F)c2)C(=O)N1
119 to 121 | Cc1cc2c(-c3ccccc3F)nc(=O)n(C)c2s1
107 | CCCCc1ccc(-c2cc(Cl)c(C#N)cn2)cc1
92 | N#CN=C(NCCC(=O)O)Nc1ccc2nonc2c1
216 to 218 | Cc1ncc2c(c1C(=O)O)COc1ccccc1C2=O
178 to 179 | O=C1CCC(c2ccc(CCCCNC(=O)c3cccnc3)cc2)=NN1
156 to 159 | N#Cc1cnn(-c2nc(F)c(C(F)(F)F)cc2Cl)c1N
83 to 84 | C=CCN(CC=C)c1nc(Cl)nc2c(SC)ncnc12

melting point [°C] | SMILES
187 to 189 | C=CCOC(=O)c1cccc(S(=O)(=O)n2c(=O)[nH]c(=O)c3ccc(Cl)cc32)c1
> 300 | O=Cc1ccc2c(c1)C1(c3ccccc3-2)c2ccccc2-c2ccc(C=O)cc21
142 to 144 | CS(=O)(=O)c1ccc(-c2cnn(-c3ccc(F)cc3)c(=O)c2COc2cccc(F)c2)cc1
212 | CS(=O)(=O)c1ccc(C(=O)N[C@H]2CC[C@H](CCN3CCN(c4nccc5c4OCC5)CC3)CC2)s1
70 to 71 | Cc1ccc(C(=O)N(C)C2CCCCC2)cc1
180 to 182 | CC1(C)C=NC(CC(=O)O)(NC(c2ccccc2)(c2ccccc2)c2ccccc2)S1 (stereo not given)
165 | CN(C(=O)CN1C(=O)C(NC(=O)Nc2cccc(C#N)c2)N=C(CN2CCSCC2)c2ccccc21)c1ccccc1 (stereo not given)
192 to 193 | CNC(=O)n1cc2c(n1)-c1ccc(Cl)cc1C(c1ccccc1F)=NC2
149 to 151 | O=[N+]([O-])c1ccc2c(c1)C(O)Cc1ccc(F)cc1S2 (stereo not given)
78 to 79 | N#Cc1cccnc1N1CCN(CC(=O)Nc2ccccc2F)CC1
40 to 40.5 | CCCCCCCCCCOC(=O)c1ccc(O)c(OC)c1
237 to 240 | NC(=O)CCc1ccnc(-c2nc(=O)c3ccccc3s2)c1
147 to 148 | COc1ccc(C=Cc2ccc(CBr)cc2)cc1
118 to 120 | CC(Oc1ccc([N+](=O)[O-])cc1)C(=O)OCCOC(=O)C(C)Oc1ccc([N+](=O)[O-])cc1 (stereo not given)
259 to 260 | CCc1noc(-c2cc3c(cn2)[nH]c2cccc(Oc4ccc(Cl)cn4)c23)n1
169 to 170 | CCc1noc(-c2cc3c4ccccc4n(CCCN4CCC(O)(c5ccccc5)CC4)c3cn2)n1
72 to 73 | Nc1ccc(CCC(=O)Nc2ccc(C(=O)c3ccccc3)cc2)cc1[N+](=O)[O-]
143 to 144 | CCN1C(=O)C(Cl)(Cl)c2cc3sccc3cc21
80 | Cc1cc(C)c2cccc(OCc3c(Cl)ccc(S(=O)(=O)N4CCC[C@H]4C(=O)NCCCN(C)C(=O)OC(C)(C)C)c3Cl)c2n1
93 to 96 | CCN1CCC(C2CCN(C(=O)OCc3ccccc3)CC2)CC1
188 to 189 | CCCc1nc2c(N)nc3cc(C)ccc3c2o1
216 to 217 | O=C(N[C@H](Cc1ccccc1C(F)(F)F)[C@@H](O)c1ccc(F)cc1)C1CCCCC1 (racemic)
157 to 158 | O=c1[nH]c(=O)n(C2CC(OCc3ccccc3)C(CO)O2)cc1C(F)(F)F (stereo not given)
189 | COc1cccc2c(=O)c3c(O)cc(OCC(O)CO)cc3oc12 (stereo not given)
183 to 191 | CCCCCCCCCCCCCCCC(=O)OCC(CO)CCn1cnc2c(=O)[nH]c(N)nc21 (stereo not given)

melting point [°C] | SMILES
200 to 205 | FC(F)(F)c1cccc(-c2ccnc(S)n2)c1
107 | CCOC(=O)C(=CC=CN(CC)CCO)S(=O)(=O)c1ccccc1
299 to 300 | Cc1nc2ccccc2n1-c1ccc(C(=O)O)cc1
64 | COC(=O)C(C)Oc1ccc(COc2ccc(Cl)cc2Cl)cc1 (stereo not given)
126 | O=C(Nc1ccc(OCCCBr)cc1)c1cccc2c(=O)c3ccccc3[nH]c12
138 to 140 | CSCc1cc2ccccc2n(-c2ccccc2)c1=O
115 to 118 | CCN(CC)C(=O)C1CCC2C3CC=C4N(C)C(=O)CCC4(C)C3CCC12C (stereo not given)
91 to 93 | COc1ccc(N(CCCC(=O)O)C(=O)CCN(C(=O)c2ccc(Cl)cc2)c2ccc(OC)cc2)cc1
145 to 148 | CCc1cc(OCc2ccc(-c3ccccc3-c3nnn(C(c4ccccc4)(c4ccccc4)c4ccccc4)n3)cc2)c2nc(OC)ccc2n1
64 to 66 | CC(Cn1ncnn1)n1nnc2cc3c(=O)n(C(C)Cn4ncnn4)nnc3cc2c1=O (stereo not given)
238 to 240 | O=C(NCc1ccc(Cl)cc1)c1cnc2sccc2c1O
194 | CCOC(=O)c1cnn(C)c1C(=O)Nc1ccc2nc(N(C)C)nn2c1
168 | Cc1ccc(-n2nccn2)c(C(=O)O)c1
256 | COc1cc(C)cc(-c2n[nH]cc2-c2cc(NC[C@H](C)O)nc(Cl)n2)c1
142 | O=C(c1ccc(C(F)(F)F)cc1)N1CCC(=Cc2ccc(C3=NCCO3)cc2)CC1
186 to 187 | COc1ccc(Cc2nnc(N[C@H]3CO[C@H](C(C)C)OC3)c3ccccc23)cn1
234 to 236 | CC(C)n1nc(-c2sc(NC(=O)C3CCCCC3)nc2-c2ccccc2)ccc1=O
161 to 164 | CC(C)COc1ccc(C=CC(=O)O)cc1
152 to 154 | Cc1ccc(CN2C(=O)[C@@H](NC(=O)Cc3ccccc3)[C@H]2CO)c(C)c1 (relative stereo)
203 to 204 | CCOC(=O)c1ccc(NC(=O)C=Cc2ccc(Cl)cc2)cc1
172 | O=C(/C=C/c1cccc(S(=O)(=O)N2CCN(Cc3ccc4c(c3)OCO4)CC2)c1)NO
153 to 154 | COC(=O)c1nc(-c2ccc(Cl)cc2)n(-c2ccc(Cl)cc2Cl)n1
123 to 124 | CC(C)OC(=O)C(C(=O)O)=C1SCS1
172 to 174 | O=C(Nc1ccc(-n2nc(-c3ccoc3)cc2OC(F)F)cc1)c1ccncc1F
180 to 182 | CC(C)(C)C1=CC(c2cccc([N+](=O)[O-])c2)C2=C(CCCC2=O)N1 (stereo not given)

melting point [°C] | SMILES
68 to 70 | C#Cc1cc(OC)c(OC)c(OC)c1
232 to 234 | CC(C)n1nc(-c2sc(NC=O)nc2-c2ccccc2)ccc1=O
216 to 219 | Cc1cn2c(N)c(Cl)cc(C(=O)NCC3CCN(CC(C)C)CC3)c2n1
72 to 76 | c1cc2cc([C@@H]3CO3)ccc2s1
226 to 228 | CCOc1nnc2c3ccc(Cl)cc3c(-c3ccccc3)nn12
101 to 102 | CC1(C)N=C(c2ccccc2)CC1c1ccccn1 (stereo not given)
64 to 65 | CC(=O)Oc1ccc(C[C@H]2CCc3ccccc3O2)cc1
109 to 111 | CCCOCc1nc(C(C)(C)O)c(C(=O)O)n1Cc1ccc(-c2ccccc2C(=O)O)cc1
199 | O=C(c1sc2c(ccc(=O)n2-c2ccccc2)c1Br)N1CC(O)C1
68 to 69 | CCN(CC)CCOc1cccc2c1c1cc(F)ccc1n2Cc1ccccc1
94 | COc1ccc(NCc2c(F)c(F)c(C(F)(F)F)c(F)c2F)cc1C(=O)O
264 to 267 | Oc1ccc(-c2nc3cc(O)ccc3o2)cc1
234 to 236 | COc1ccccc1S(=O)(=O)NC(=O)c1ccc(C(=O)O)nc1
300 to 301 | Nc1ncc2ncnc(Nc3ccc(F)c(Cl)c3)c2n1
150 to 151 | Cc1cc(O)c(S(=O)Cc2ccc(Cl)cc2)c(=O)o1 (stereo not given)
96 | COc1cc(C(C)=O)c(OC)cc1Cl
158 to 160 | CCCc1nc2c(N)nc3ccccc3c2n1CCCCN(O)C(=O)NC(C)C
92 | COC(=O)CCCc1cc2nc(Cl)ccc2n1S(=O)(=O)c1cccc(C(C)C)c1
149 | CNc1nc(OCc2ccccc2)ccc1[N+](=O)[O-]
260 | O=C(O)C=CC=CC=CC1=Cc2cc(-c3ccccc3)ccc2OC1
87 to 89 | CSc1nccc(-c2ccccc2)n1
> 250 | O=C(O)C1=CS[C@@H]2/C(=C\c3ccc4nc5sccn5c4c3)C(=O)N12
184 to 186 | CC1=C(c2ccncc2)C(C)CC(=O)N1 (stereo not given)
189 to 191 | CCC1(Br)Cc2cc(OCC(=O)O)c(Cl)c(Cl)c2C1=O (stereo not given)
173 | NNc1nccc(-c2ccc(Oc3ccccc3)cc2)c1Cl
